Source: the METLIN SMRT retention time set (Domingo-Almenara et al. 2019)

Experiment: gradient 5% acetonitrile 3 min, to 50% in 2 min, to 85% in 15 min, held 3 min, 100 µL/min
Conditions: column: Zorbax Extend-C18 2.1 x 50 mm; eluents: water / acetonitrile, 0.1% formic acid
How it was run: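 Data were gathered over 3 months by HPLC coupled to a quadrupole time-of-flight mass spectrometer, operated in positive and negative ionization mode. Mixtures of ~100 pure standards ran on a Zorbax Extend-C18 column (2.1 × 50 mm, 1.8 μm) at 100 μL/min, with water and acetonitrile each containing 0.1% formic acid and dead and dwell volumes of 40 μL and 900 μL. Retention time was read from adduct peaks picked by computer and checked manually.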

Structure (SMILES) | RP-LC retention time
CCOc1ccccc1NC(=O)N1CCN(C(=O)N2C[C@H]3C[C@@H](C2)[C@H]2CCCC(=O)N2C3)CC1 | 687 s
CCOC(=O)c1cnc(SCC(=O)N2CCC(C(N)=O)CC2)nc1N | 602 s
CC(C)C(NC(=O)CCc1ccccc1)C(=O)Nc1nc2ccccc2[nH]1 (stereo not drawn) | 718 s
CNC(=O)c1ccc(Nc2c(-c3ccc(OC)cc3)nc3cnccn23)cc1 | 643 s
CCc1nc2cc3c(cc2n1CC(=O)NC(C)c1ccc2c(c1)OCCCO2)OCCO3 (stereo not drawn) | 628 s
CCN1CCN(CCCNS(=O)(=O)c2cccc(-c3nc(-c4ccc(C)cc4)no3)c2)CC1 | 690 s
CCOc1cccc(-c2noc(Cn3nc(-c4ccc5c(c4)OCO5)ccc3=O)n2)c1 | 1130 s
CCOC(=O)c1c(S(=O)(=O)N2CCC(C(=O)Nc3ccccc3F)CC2)c(C)n(C)c1C | 851 s
O=C(Nc1cccc(F)c1)Nc1ccc2nncn2c1 | 686 s
CC(NC(=O)C1C(=O)NC2(C)CC1c1ccccc1O2)c1ccccc1 (stereo not drawn) | 831 s
O=C(c1csc(-c2ccnc(N3CCOCC3)c2)n1)N1CCCCCC1 | 689 s
CCn1nnc2c(N3CCOCC3)nc(-c3ccc(NC(=O)Nc4ccc(C(=O)N5CCN(C)CC5)cc4)cc3)nc21 | 690 s
COC(=O)C1=C(CN2CCSCC2)NC(=O)NC1c1ccccc1Cl (stereo not drawn) | 621 s
O=C(NC1CCCCCC1)c1ccc(CN2CCN(Cc3ccccc3)C(=O)C2=O)cc1 | 812 s
CC1CCCN(c2ccn3c(=O)n(CC(=O)NCc4ccc(F)cc4F)nc3n2)C1 (stereo not drawn) | 772 s
CC1(C(=O)NC2CCCCCCC2)CN(S(C)(=O)=O)CC(=O)N1c1ccc(Cl)cc1 (stereo not drawn) | 952 s
CCCN1CCN(C(=O)c2ccc3ccnc(N4CCN(c5ccc(Cl)cc5)CC4)c3c2)CC1 | 643 s
COC(=O)c1ccc(-c2nc3cnccn3c2Nc2cccc(C(F)(F)F)c2)cc1 | 945 s
COc1ccc(-c2cc(C(=O)Nc3ccc4c(c3)CCC(=O)N4)c3ccccc3n2)cc1 | 822 s
COC(=O)c1ccccc1NC(=O)N1CCN(c2ccc(=O)n(-c3ccccc3)n2)CC1 | 876 s

Structure (SMILES) | RP-LC retention time
Cc1nc(-c2ccc(N3CCN(C(=O)c4cccc(Cl)c4)CC3)nc2)sc1C | 957 s
CC1CN2C=NC(N3CCN(C(=O)Nc4ccc(C(F)(F)F)cc4)CC3)=CC2=N1 (stereo not drawn) | 687 s
COc1cc(-c2nc3ncccn3c2NC2CCCCC2)cc(OC)c1OC | 724 s
Cc1noc(C)c1CNC(=O)c1cc(Cl)ccc1F | 778 s
O=C(O)c1ccc2c(c1)nc(Nc1cccc(Cl)c1)c1ccncc12 | 845 s
O=C(CCc1c(-c2ccc(F)cc2)nc2ccccn12)Nc1cccc(C(F)(F)F)c1 | 752 s
CCn1c(=O)n(CC)c2cc(N3CCCC3)c(NC(=O)NCc3cccc(F)c3)cc21 | 654 s
CCn1nc(C)n2cc(S(=O)(=O)NCc3ccco3)cc2c1=O | 779 s
O=C(COc1ccccc1-c1nc(-c2ccccc2Cl)no1)NCc1ccco1 | 1060 s
CCCn1cc(S(=O)(=O)Nc2cccc(OC)c2)c2cccnc21 | 840 s
Cn1cc2c(n1)c(=O)n(Cc1ccccc1)c(=O)n2CC(=O)NCc1ccccc1 | 769 s
Cc1nnc(N2CCC(C(=O)N3CCN(C)CC3)CC2)c2nn(-c3ccccc3)c(C)c12 | 573 s
COc1ccc(-c2cccc(NC(C)=O)c2)nn1 | 645 s
COc1ccc(-c2cc3c(=O)n(Cc4ccc(F)cc4)ccn3n2)cc1OC | 913 s
O=C(NCCN1CCOCC1)c1cc2cc(Cl)ccc2o1 | 558 s
CC1=C(c2ccccc2)S(=O)(=O)N=C1N1CCC(NC(=O)CCC(C)C)CC1 | 857 s
COC(=O)c1cc2ccsc2n1Cc1cccc(C#N)c1 | 1010 s
O=C(c1cccs1)N1CCc2c([nH]c3ccccc23)C1c1ccc(Cl)cc1 (stereo not drawn) | 1220 s
CCc1nn(C)c(=O)c2cc(S(=O)(=O)NCc3ccc(Cl)cc3)cn12 | 911 s
COCCNC(=O)c1csc(N2CCN(c3ccc(OC)cc3)CC2)n1 | 767 s

Structure (SMILES) | RP-LC retention time
COc1ccc(OC)c(CNC(=O)C2(CCO)CCN(c3ncccn3)C2)c1 (stereo not drawn) | 618 s
Cc1cc(C)n2nc(CN(C(=O)c3ccco3)c3cccc(Cl)c3)nc2n1 | 776 s
N#Cc1cc(NC(=O)Cc2nnc(-c3ccc4ncccc4c3)o2)ccc1F | 720 s
CCOC(=O)c1nc(N(C)C2CCCCC2)c2ccccc2n1 | 789 s
COCCNC(=O)CC1Sc2ncccc2N(CC(C)C)C1=O (stereo not drawn) | 659 s
CCn1cc(S(=O)(=O)Nc2ccc(C)cc2)c2cccnc21 | 838 s
COc1ccc(N2CC(c3nc(-c4ccc(Cl)cc4)no3)CC2=O)cc1 (stereo not drawn) | 998 s
O=S(=O)(NCCN1CCOC(c2ccccc2)C1)c1ccc2c(c1)CCCC2 (stereo not drawn) | 632 s
COCC(=O)N1CCC2(CC1)NCc1ccccc1-n1ccnc12 | 548 s
COc1ccc(OC)c(NC(=O)CN2CC=C(c3cnn(C)c3)CC2)c1 | 597 s
CCC(=O)NCc1nc2c(n1C)CN(S(=O)(=O)c1ccc(F)c(C)c1)CC2 | 575 s
Cc1ccc(Sc2nccnc2N2CCCC(C(=O)NCc3ccc4c(c3)OCO4)C2)cc1 (stereo not drawn) | 1060 s
Cc1cc(C)nc(SCc2nnc(SCC(=O)Nc3nccs3)o2)n1 | 600 s
O=S(=O)(NCC(c1cccnc1)c1c[nH]c2ccccc12)c1ccc(Cl)c(Cl)c1 (stereo not drawn) | 787 s
CCCN1C(=O)C2(c3cc(Br)ccc31)c1[nH]c3ccccc3c1CCN2C(C)=O (stereo not drawn) | 924 s
Cc1ccc(-c2cn3c(n2)N(C(=O)Cn2ccnc2C)CCC3)cc1 | 628 s
CCOc1ccccc1NC(=O)CSc1nnc2c3cc(-c4ccc(F)cc4)nn3ccn12 | 948 s
COc1cccc(-c2noc(C3CCCN3C(=O)Nc3ccc(OC)c(F)c3)n2)c1 (stereo not drawn) | 946 s

Continued, values first:

RP-LC retention time | Structure (SMILES)
614 s | CCOc1ccc(CNC(=S)Nc2ccc3nc(N4CCN(C)CC4)cc(C)c3c2)cc1
726 s | CCC(=O)N1CCc2cc(N3CC(C(=O)N4CCC(C)CC4)CC3=O)ccc21 (stereo not drawn)
771 s | CCN1c2ccccc2C(=O)NC12CCN(C(=O)NC1CCCCC1)CC2
775 s | COCCCNC(=O)Cn1ncc2c(C)n(Cc3ccc(Cl)cc3)c(C)c2c1=O
690 s | O=C(CSc1nc(N2CCCCC2)nc2ccccc12)Nc1ccc2c(c1)OCCO2
834 s | Cc1cc(C)c(S(=O)(=O)N2CC(F)(F)C[C@H]2COc2cccnc2)c(C)c1
539 s | CNC(=O)C1CCCN(S(C)(=O)=O)CCC(=O)NCC1 (stereo not drawn)
903 s | Cn1nc(-c2nnc(-c3ccc(F)cc3)o2)c2c1CCN(S(=O)(=O)c1ccc(F)cc1)C2
1120 s | Cc1ccc(C)c(N2CCN(C(=O)Cc3csc4nc(-c5ccc(C)c(C)c5)cn34)CC2)c1
990 s | O=C(Cn1cccc(-c2nc(-c3ccc(Br)cc3)no2)c1=O)Nc1ccc(F)cc1F
955 s | COc1ccc(-c2nnc(-c3ccccc3)o2)cc1S(=O)(=O)N1CCSCC1
594 s | Cn1c(=O)c(SCC(=O)NCCN2CCCCC2)nc2ccccc21
1030 s | CC(=O)N1CCCSc2ccc(S(=O)(=O)N(C)c3ccc(C)c(C)c3)cc21
773 s | COc1ncc(C(=O)NCc2ccc(Br)cc2)cn1
1130 s | CCOc1ccccc1-c1noc(-c2nnn3c2COC(c2ccc(F)cc2)C3)n1 (stereo not drawn)
734 s | COCCc1noc(-c2cnc3nc(C)ccc3c2NC2CCCCCC2)n1
827 s | O=C(c1ccc(Br)cc1)N1CCC(n2c(-c3ccco3)nc3cccnc32)C1 (stereo not drawn)
960 s | C=CCN1C(=O)C(C)(C)COc2ccc(NC(=O)Oc3ccccc3)cc21
772 s | O=C(Cc1ccc(Cl)cc1)Nc1nnc(C2CC(=O)N(c3ccc(F)cc3)C2)o1 (stereo not drawn)
488 s | CCN1CCN(c2cc(C)c3cc(NC(=S)N4CCC(N5CCCCC5)CC4)ccc3n2)CC1
1180 s | COc1c(C(=O)Nc2ccc3c(c2)OCO3)sc2cc(Cl)ccc12
1190 s | C=CCn1c2ccccc2c2nnc(SC(CC)C(=O)Nc3nc(-c4ccccc4)cs3)nc21 (stereo not drawn)
681 s | CCOC(=O)c1csc(NC(=O)Cc2ccc(S(=O)(=O)CC)cc2)n1
1110 s | COc1ccc(N2CCN(c3cc(SCC(=O)NCCCc4ccccc4)ncn3)CC2)cc1
700 s | CC(=O)Nc1nc(-c2ccc3c(c2)N(C)C(=O)CO3)cs1
927 s | Cc1csc(-c2cc(S(=O)(=O)Nc3ccc(F)c(F)c3)cn2CC(=O)N2CCCC2)n1
729 s | CC(=O)Nc1ccc(Cc2nc(-c3ccc4c(c3)oc(=O)n4C)no2)cc1
893 s | Cn1nc(C2CCN(S(=O)(=O)c3cc(F)cc(F)c3)CC2)n(C2CCCC2)c1=O
605 s | CCN(CC)C(=O)c1c2c(nc3ccccc13)CCCC2
1060 s | CCOc1ccccc1NC(=O)C1CCCN(S(=O)(=O)c2cc(-c3noc(C)n3)cs2)C1 (stereo not drawn)
